The text below walks through data of PMC3475717, “A Spiroligomer α-Helix Mimic That Binds HDM2, Penetrates Human Cells and Stabilizes HDM2 in Cell Culture” (PLoS ONE, 2012).

Data set [1] has as its system HDM2, p53Y220C and p21 in Huh7 cells. The data set is described as follows: Western blot analysis of HDM2, p53 and p21. Type of data set: cell-based, human. On the procedure: Huh7 cells were incubated with spiroligomer 1 and Nutlin-3 in media at 2, 5, 10 and 20 µM for 17 hours at 37°C. […] Huh7 cells were then incubated with 1 at 15 µM and cells were harvested at 2, 4, 6, 8, 12 and 24 hours. […]
(§1) Cell Culture and Treatment. HepG2 (expressing wild-type p53) and Huh7 (expressing mutant p53) cell lines were purchased from the American Type Culture Collection (ATCC) and cultured as monolayers in Dulbecco’s modified Eagle’s medium (DMEM) (Invitrogen) supplemented with 100 mM nonessential amino acid solution, 100 mM sodium pyruvate, 100 U/mL penicillin, 100 μg/mL streptomycin, and 10% heat inactivated fetal bovine serum (FBS) (all from Hyclone).
(§2) Cells were maintained at 37° C and 5% CO2 and were treated with media that contained 0.5%
FBS. Nutlin-3 (Sigma) was dissolved in 0.01% DMSO (Sigma).
Both nutlin-3 and spiroligomers were added into the medium for final concentrations of 2 µM, 5 µM, 10 µM and 20 µM for 24 hours. For the western blot experiments detailed below, the time length for incubation with bis-peptide was 17 hours. […]
Western Blotting. For protein extraction, cells were lysed in cell lysis buffer (Cell Signaling) with a protease inhibitor cocktail for 20 minutes on ice. Protein extracts (50 μg) were separated by SDS-PAGE electrophoresis, transferred to nitrocellulose membranes (Schleicher & Schuell), and incubated overnight with primary antibodies to p53, HDM2, p21, and β-actin (all from Santa Cruz Biotechnology). The blots were developed using ECL plus detection system (Amersham Biosciences) and exposed to Kodak imaging films (Kodak BioMax). Images were quantified using ImageJ software (NIH).
Figure S.5. Detection of bis-peptide 1 and Nutlin-3 in HepG2 (left) and Huh7 (right) cells. The concentration of each compound is given in μM and the three proteins (HDM2, p53 and p21) bands are […]
Background: In western blotting, separated proteins are transferred to a membrane and probed.

Another data set concerns Huh7 cells. As to the kind of experiment: cell penetration, fluorescence and confocal microscopy. Type of data set: cell-based, human. The following applies: Huh7, 37°C. The method, then:
Table S.7. Parameters used for the non-linear fit for the plot of the competition binding experiment.
as §1, §2
(§3) FBS. Nutlin-3 (Sigma) was dissolved in 0.01% DMSO (Sigma). This concentration of DMSO did not affect the cell phenotype. Both nutlin-3 and spiroligomers were added into the medium for final concentrations of 2 µM, 5 µM, 10 µM and 20 µM for 24 hours. For the western blot experiments detailed below, the time length for incubation with bis-peptide was 17 hours.
Fluorescence and Confocal Microscopy. Fluorescence and confocal microscopy were applied to live and fixed cells. Cells were grown on glass chambers and fixed with ice-cold 95:5 ethanol/acetic acid for 10 minutes at -20 °C. […] Fluorescent specimens were analyzed using an ECLIPSE Ti microscope (Nikon), lenses with hardened […]
Western Blotting. […] Images were quantified using ImageJ software (NIH). […]

A further data set relates to HepG2 cells. As to the kind of experiment: cell penetration, fluorescence and confocal microscopy; active vs. passive transport. Type of data set: cell-based, human. As to conditions: HepG2, 37°C, 5 µM, 3.75 hours. The method, then:
as §1, §2, §3
Fluorescence and Confocal Microscopy. Fluorescence and confocal microscopy were applied to live and fixed cells. Cells were grown on glass chambers and fixed with ice-cold 95:5 ethanol/acetic acid for 10 minutes at -20 °C. Sections were washed with PBS and mounted in Vectashield aqueous mounting medium with DAPI (Vector laboratories). Fluorescent specimens were analyzed using an ECLIPSE Ti microscope (Nikon), lenses with hardened […]
(1 picture or pasted object on this page, not shown here) […]
filters (Nikon), and a Nikon DS-Fi1 camera, which was operated by NIS Elements computer software (Nikon). Confocal microscopy was performed with a Leica SP-1 microscope, with illumination at 488 nm and spectral detection. […]
Mathematical model described8 and MxPro software (Stratagene) were used to process PCR data. End-point PCR reactions were assayed with PCR Master Mix (Promega). Samples were amplified in 34 cycles; each cycle consisted of 30 sec of denaturation at 95 °C, 30 sec of annealing at 60 °C, and 30 sec of elongation at 72 °C. After 34 cycles, samples were subjected to final elongation for 5 minutes at 72 °C. […]
fluorescence in the images.

Data set [2] deals with T1, HDM2 (Homo sapiens, UniProt Q00987).
T1 construct: A fusion protein consisting of residues 1-140; unnamed fusion partner ('fusion protein'); made in house; host or cells: E. coli BL21
T1 sequence (Q00987 1-140): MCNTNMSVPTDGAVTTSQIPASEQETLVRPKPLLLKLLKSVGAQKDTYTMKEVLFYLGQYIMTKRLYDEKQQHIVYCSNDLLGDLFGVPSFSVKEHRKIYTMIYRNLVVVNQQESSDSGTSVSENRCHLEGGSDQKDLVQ
As to the kind of experiment: competition fluorescence polarization experiment (displacement of Flp4 peptide). The following applies: Flp4 at 10 nM with 2 µM HDM2, series of concentrations of spiroligomer; read-out: Ki against Flp4 peptide. Type of data set: binding.

Data set [3] has as its target T1, HDM2. The data set is described as above. It counts as binding. The following applies: hDM2 0.4 μM, Flp4 10 nM, three independent trials. On the procedure: Competition Fluorescence Polarization Experiments. To assess the ability of oligomer 2 to […]
competition experiments were undertaken. hDM2 (0.4 μM) and Flp4 control peptide (10 nM) were incubated at room temperature for 30 minutes in binding buffer, followed by the addition of serial dilutions of oligomer 2 (final conc. 400 μM to 0.194 μM). The binding experiments were incubated for a further 30 minute time period, followed by recording of the polarization data. See […]
Bis- Pept ide ( nM ) Po lar A ( mP)
Table S.6. Table of raw values used for the plot of the competition binding experiment; X values are oligomer 2 concentration (in nM) and Y values are polarization (in millipolarization units); data from three independent trials is shown.

pKi: −log10 of the molar value. “And” between values parts separate entries of the source, which are not always exact repeats. Identical values can stand only once. “Also recorded” adds a separate entry of the source.

With `COc1ccc(C2=N[C@@H](c3ccc(Cl)cc3)[C@@H](c3ccc(Cl)cc3)N2C(=O)N2CCNC(=O)C2)c(OC(C)C)c1` [Nutlin-3], in data set [1], the “HDM2 levels relative to control cells” value is “not seen; also recorded: very weak stabilization effect on HDM2”, the “HDM2 levels with time” value is on record as “only very small changes; also recorded: very little effect on HDM2”, the p53Y220C levels result is on record as “No visible effect” and the “p53Y220C levels with time” value is recorded as “no observable effect on p53Y220C levels”.

Consider `O=C1OC2(c3ccc(O)cc3Oc3cc(O)ccc32)c2ccccc21` [fluorescein, reference compound], for which the results for the “uptake of fluorescence (control)” value in the data set with Huh7 cells and in the data set on HepG2 cells were “no visible uptake of fluorescence” and “no visible uptake of fluorescence; also recorded: failed to produce any fluorescence”, respectively.

For the compound `CC(C)CN1C(=O)C2CC3(CN2C(=O)C12CC1C(=O)N(Cc4ccc(Cl)c(Cl)c4)C4(CC5C(=O)NC(CCc6ccccc6)C(=O)N5C4)C(=O)N1C2)NC(=O)C(CCC(=O)O)NC3=O` (stereo not shown) [Compound 2], the negative-log Ki (pKi) at HDM2 [2] is 5.30. Moreover, the “polarization of Flp4 in competition” value at HDM2 [3] (oligomer 194.8242 nM) was 115. 56 mP and 119. 19 mP and 107. 52 mP; at HDM2 [3] (oligomer 389.6484 nM) it was 109. 71 mP and 120. 5 mP and 117. 89 mP; on HDM2 [3] (oligomer 779.2969 nM), 107. 07 mP and 119. 05 mP and 110. 95 mP; at HDM2 [3] (oligomer 1558.594 nM), 102. 29 mP and 112. 93 mP and 113. 76 mP; on HDM2 [3] (oligomer 3117.188 nM), 103. 88 mP and 103. 29 mP and 109. 28 mP; at HDM2 [3] (oligomer 6234.375 nM) it was 97.23 mP and 94.66 mP and 93.84 mP. Also, the “polarization of Flp4 in competition” value is 91.7 mP and 86.62 mP and 91.97 mP on HDM2 [3] (oligomer 12468.75 nM); 88.82 mP and 82 mP and 88.53 mP at HDM2 [3] (oligomer 24937.5 nM); 86.21 mP and 84.81 mP and 86.83 mP at HDM2 [3] (oligomer 49875 nM); 78.06 mP and 93.73 mP and 94.13 mP on HDM2 [3] (oligomer 99750 nM); 84.38 mP and 85.9 mP and 80.84 mP at HDM2 [3] (oligomer 199500 nM); 75.41 mP and 67.78 mP and 78.26 mP at HDM2 [3] (oligomer 399000 nM).

The pKi is the negative decadic logarithm of the Ki, by convention in mol/L.
